Measured values reported in the supplement of paper PMC4977894.
Counter-ions that a name gives are not always drawn. ± gives the standard deviation of the averaged measurements.

Key:
[1] = system: Homo sapiens (human subject panel, olfactory perception); assay: perceived odor pleasantness rating (rating 0-100); higher = more pleasant
In short: (§1)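 55 healthy human subjects (aged 18–50; six lowest performers excluded) sniffed 1 mL of each molecule diluted in paraffin oil, at high and low concentrations, in randomized order across ten visits of 100 stimuli. Subjects who reported smelling the stimulus rated it on a computerized slider starting at 50, which had to be moved; positions were converted to a 0–100 scale. Familiarity, intensity and pleasantness ratings are averages over subjects.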

[2] = system: Homo sapiens (human subject panel, olfactory perception); assay: perceived odor familiarity rating (rating 0-100); higher = more familiar
In short: as §1

[3] = system: Homo sapiens (human subject panel, olfactory perception); assay: perceived odor intensity rating (rating 0-100); higher = stronger perceived smell
In short: as §1

[4] = odor dilution in paraffin oil: 1/10
[5] = odor dilution in paraffin oil: 1/1,000
[6] = odor dilution in paraffin oil: 1/100,000
[7] = odor dilution in paraffin oil: 1/10,000,000

Compound	perceived odor pleasantness rating [1, 4]	perceived odor pleasantness rating [1, 5]	perceived odor familiarity rating [2, 4]	perceived odor familiarity rating [2, 5]	perceived odor intensity rating [3, 4]	perceived odor intensity rating [3, 5]	perceived odor pleasantness rating [1, 6]	perceived odor familiarity rating [2, 6]	perceived odor intensity rating [3, 6]	perceived odor pleasantness rating [1, 7]	perceived odor familiarity rating [2, 7]	perceived odor intensity rating [3, 7]
CCCCC/C=C\C/C=C\CCCCCCCC(=O)O [Linoleic acid (replicate)]	20.4 ± 24	31.7 ± 20	46.6 ± 35	53.2 ± 30	91.6 ± 11	66.6 ± 26	–	–	–	–	–	–
CCCCC/C=C/CO [trans-2-Octen-1-ol]	–	36.5 ± 28	–	46.4 ± 32	–	69.6 ± 26	50.8 ± 22	31 ± 31	27.6 ± 28	–	–	–
CSSSC [Dimethyl trisulfide]	–	–	–	–	–	–	22.3 ± 24	52.5 ± 34	77.6 ± 23	28.1 ± 25	49.1 ± 34	63 ± 28
CCCC(C)C(=O)OCC (stereo not given) [Ethyl 2-methylpentanoate]	–	76.8 ± 20	–	67.2 ± 24	–	67.9 ± 22	64.9 ± 21	50.8 ± 28	49.4 ± 24	–	–	–
O=C(Cc1ccccc1)Cc1ccccc1 [1,3-Diphenyl-2-propanone]	–	32.7 ± 29	–	49.7 ± 34	–	78.1 ± 20	43 ± 27	48.1 ± 30	35.4 ± 28	–	–	–
CCOC(=O)C1OC1(C)c1ccccc1 (stereo not given) [Ethyl 3-methyl-3-phenylglycidate]	–	–	–	–	–	–	59.9 ± 25	48 ± 30	48.2 ± 32	53.4 ± 23	28.4 ± 28	13.3 ± 28
CCc1nccnc1CC [2,3-Diethylpyrazine]	–	–	–	–	–	–	34.3 ± 24	55 ± 28	70.7 ± 26	40.3 ± 18	44.9 ± 28	30.4 ± 29
N[C@@H](CS)C(=O)O [L-Cysteine]	12.8 ± 20	39 ± 23	46.2 ± 36	33.8 ± 28	71.7 ± 30	33.4 ± 30	–	–	–	–	–	–
CCCCCC(=O)CCCCC [6-Undecanone]	–	49.5 ± 27	–	43.3 ± 31	–	43.3 ± 30	52.7 ± 29	32.9 ± 32	8.22 ± 16	–	–	–
CC1CCC(=O)C1=O (stereo not given) [Methylcyclopentenolone]	35.8 ± 32	44.6 ± 30	63 ± 33	52.5 ± 34	84.7 ± 18	72 ± 26	–	–	–	–	–	–
COc1cc(C)ccc1O [2-Methoxy-4-methylphenol]	–	–	–	–	–	–	39.6 ± 22	53.6 ± 30	60.2 ± 27	43.9 ± 23	37.5 ± 32	27 ± 29
OC[C@@H](O)[C@@H](O)[C@H](O)[C@@H](O)CO [D-Sorbitol]	29.8 ± 27	45 ± 28	55.1 ± 31	44.6 ± 31	73.4 ± 22	39 ± 33	–	–	–	–	–	–
CCCCCCCCCCC(=O)O [Undecanoic acid]	22.9 ± 21	31.1 ± 24	45.9 ± 32	41.9 ± 34	81.8 ± 19	57.4 ± 33	–	–	–	–	–	–
CCC(=O)OCc1ccccc1 [Benzyl propionate]	–	67.2 ± 23	–	50.7 ± 32	–	53 ± 30	44 ± 28	34.5 ± 24	30 ± 32	–	–	–
CC(C)C(=O)OCCOc1ccccc1 [2-Phenoxyethyl isobutyrate]	43.8 ± 22	55.1 ± 26	44 ± 30	30.3 ± 31	58.7 ± 26	27.5 ± 29	–	–	–	–	–	–
CCCCC(C)=O [2-hexanone]	–	42.2 ± 24	–	57.6 ± 32	–	71.4 ± 25	48.6 ± 23	31.4 ± 27	25.5 ± 31	–	–	–
CC(C)c1ccc(CO)cc1 [4-Isopropylbenzyl alcohol]	31.8 ± 23	40.4 ± 25	46.4 ± 31	33.1 ± 29	71.6 ± 22	31.9 ± 32	–	–	–	–	–	–
C=CCc1ccc(O)c(OC)c1 [eugenol]	–	67.6 ± 23	–	73.6 ± 26	–	74.6 ± 21	61.8 ± 25	59.6 ± 32	60.4 ± 26	–	–	–

Compound	perceived odor pleasantness rating [1, 4]	perceived odor pleasantness rating [1, 5]	perceived odor familiarity rating [2, 4]	perceived odor familiarity rating [2, 5]	perceived odor intensity rating [3, 4]	perceived odor intensity rating [3, 5]	perceived odor pleasantness rating [1, 6]	perceived odor familiarity rating [2, 6]	perceived odor intensity rating [3, 6]	perceived odor pleasantness rating [1, 7]	perceived odor familiarity rating [2, 7]	perceived odor intensity rating [3, 7]
CCCOC(C)=O [propyl acetate]	–	43.5 ± 24	–	55.1 ± 30	–	43.8 ± 36	49 ± 20	41.6 ± 28	24.5 ± 26	–	–	–
CCCCCC=O [Hexanal]	–	–	–	–	–	–	20.4 ± 20	41.5 ± 33	78.2 ± 21	47.2 ± 18	29 ± 26	15 ± 16
CC(=O)CC/C=C(\C)CCC=C(C)C [6,10-Dimethyl-5,9-undecadien-2-one]	–	41.8 ± 23	–	43.6 ± 26	–	42.1 ± 30	53 ± 21	40.3 ± 30	13 ± 12	–	–	–
CC(C)CO [2-methyl-1-propanol]	–	37.4 ± 23	–	38.5 ± 34	–	42.5 ± 33	43.5 ± 21	35.4 ± 28	23.4 ± 23	–	–	–
O=C1CCCCCC1 [Cycloheptanone]	–	40.8 ± 28	–	52.7 ± 30	–	69 ± 28	55 ± 19	35.8 ± 30	26.4 ± 28	–	–	–
CCOC(=O)CC(=O)OCC [Diethyl malonate]	–	71.7 ± 17	–	64.3 ± 24	–	57.1 ± 27	61 ± 23	42.8 ± 28	27.4 ± 26	–	–	–
O=C(O)c1ccccc1 [Benzoic acid]	–	34.9 ± 22	–	34.4 ± 25	–	30.3 ± 27	55.5 ± 25	38.7 ± 30	20.2 ± 24	–	–	–
CC(C)O [Isopropyl alcohol]	–	41.1 ± 24	–	29.4 ± 29	–	11.8 ± 18	38.3 ± 18	36.5 ± 28	21.9 ± 23	–	–	–
COC(=O)c1ccccc1OC [Methyl 2-methoxybenzoate]	–	48.1 ± 26	–	40.8 ± 31	–	47.5 ± 31	45.9 ± 25	37.5 ± 28	20.6 ± 24	–	–	–
CCCCCC1CCCC(=O)O1 (stereo not given) [delta-Decalactone]	–	69.3 ± 22	–	62.5 ± 28	–	65.7 ± 28	72.4 ± 20	60.8 ± 29	52 ± 28	–	–	–
COC(=O)c1ccccc1 [methyl benzoate]	–	–	–	–	–	–	45.9 ± 23	35.1 ± 32	36.1 ± 30	47.8 ± 23	38 ± 32	14.2 ± 22
II [Iodine]	13.7 ± 22	51.6 ± 30	48.4 ± 33	41 ± 37	77.7 ± 29	32.4 ± 30	–	–	–	–	–	–
CCCCCCCCC(C)=O [2-decanone]	–	49.5 ± 25	–	44 ± 29	–	44.8 ± 30	51.2 ± 26	30.3 ± 23	24.6 ± 26	–	–	–
O=CSCc1ccco1 [2-Furanmethanethiol formate]	–	–	–	–	–	–	21.5 ± 23	54.5 ± 36	87.3 ± 14	24.3 ± 28	58.5 ± 35	86.9 ± 14
CCCCCOC(=O)CCC [Amyl butyrate]	–	55.8 ± 28	–	51.7 ± 32	–	59.2 ± 26	47.7 ± 30	32.9 ± 32	20.8 ± 25	–	–	–
COC(=O)c1cccnc1 [Methyl nicotinate]	38.4 ± 29	38.3 ± 24	37.2 ± 30	43.5 ± 30	71.6 ± 28	63 ± 26	–	–	–	–	–	–
CC(=O)OC1CC(C)CCC1C(C)C [L-Menthyl acetate (replicate)]	61.6 ± 21	58.9 ± 18	56.9 ± 30	39.2 ± 30	59.6 ± 29	34.3 ± 28	–	–	–	–	–	–
